How the values were obtained:
[1] = test system: myocardial ATP (isolated perfused rat heart); test: Myocardial ATP in Langendorff isolated perfused rat heart before, during and after 10 min ischemia; conditions: 100 μM; for ATP, 10' Ischemia / ATP, 15' RP / ATP, 30' RP / ATP, 60' RP / ATP, Equilibration: 37° C., N ≥ 5; for ATP, 15' RP: 15' reperfusion; for ATP, 30' RP: 30' reperfusion; for ATP, 60' RP: 60' reperfusion; for ATP, Equilibration: pre-ischemic equilibration; for nucleotide pools (ATP) during ischemia and/or post-ischemic reperfusion: in words, isolated rat heart
[2] = test system: isolated perfused rat heart; test: Recovery of left ventricular developed pressure in isolated perfused rat heart after 10 min total ischemia; set-up: % of Control Developed Pressure, 15' RP / % of Control Developed Pressure, 30' RP / % of Control Developed Pressure, 60' RP: concentration or dose not given beside the values; conditions: for % of Control Developed Pressure, 15' RP: 15' reperfusion; for % of Control Developed Pressure, 15' RP / % of Control Developed Pressure, 30' RP / % of Control Developed Pressure, 60' RP: 37° C., N ≥ 5; for % of Control Developed Pressure, 30' RP: 30' reperfusion; for % of Control Developed Pressure, 60' RP: 60' reperfusion; for contractile function of the isolated perfused rat heart: in words, after 10 minutes of total ischemia
Experimental: This hypothesis was also tested using the aforementioned isolated rat heart model. The effects of adenosine and hypoxanthine on the recovery of cardiac contractile function was assessed by the determination of left ventricular developed pressure during the post-ischemic reperfusion phase with the use of an intra-ventricular saline filled balloon.

| SMILES | ATP, 10' Ischemia [1] | ATP, 15' RP [1] | ATP, 30' RP [1] | ATP, 60' RP [1] | ATP, Equilibration [1] | nucleotide pools (ATP) during ischemia and/or post-ischemic reperfusion [1] | % of Control Developed Pressure, 15' RP [2] [%] | % of Control Developed Pressure, 30' RP [2] [%] | % of Control Developed Pressure, 60' RP [2] [%] | contractile function of the isolated perfused rat heart [2] |
| --- | --- | --- | --- | --- | --- | --- | --- | --- | --- | --- |
| Nc1ncnc2c1ncn2[C@@H]1O[C@H](CO)[C@@H](O)[C@H]1O [Adenosine, adenosine] | 1.7 ± 0.1 μmoles/g wet weight | 2.9 ± .08 μmoles/g wet weight | 2.7 ± .08 μmoles/g wet weight | 2.7 ± .06 μmoles/g wet weight | 3.9 ± 0.4 μmoles/g wet weight | able to enhance nucleotide pools (ATP) during ischemia and/or during the post-ischemic reperfusion period | 86 ± 3 | 96 ± 3 | 95 ± 3 | capable of restoring the contractile function |
| O=c1[nH]cnc2nc[nH]c12 [Hypoxanthine, hypoxanthine] | 1.4 ± .2 μmoles/g wet weight | 2.7 ± .2 μmoles/g wet weight | 2.7 ± .1 μmoles/g wet weight | 2.3 ± .1 μmoles/g wet weight | 3.4 ± .2 μmoles/g wet weight | able to enhance nucleotide pools (ATP) during ischemia and/or during the post-ischemic reperfusion period | 84 ± 5 | 88 ± 2 | 87 ± 3 | capable of restoring the contractile function |

— patent US4880783A, “Use of adenosine, hypoxanthine and ribose-containing solution for improved protection of the heart during surgery” (University of Virginia Alumnia Patents Foundation, priority 1988, dated 1989)
